From patent US6495525B1, “VLA-4 inhibitor: oMePUPA-V” (Biogen, Inc., priority 1998, dated 2002)

Tests used:
[1] = tested on: mouse contact hypersensitivity; test: DNFB contact hypersensitivity model, ear swelling; format: in vivo, mice; conditions: 0.03 or 0.3 mg/kg enterally 4 hours after DNFB challenge, measured 24 hours after challenge
Experimental: Twenty gram female virus-free Balb/c mice (Jackson Laboratories, Bar Harbor, Me.) housed four to a cage in microisolator cages in Biogen's virus-free animal facility and receiving ad libitum mouse chow and tap water were used for all studies. Mice were anesthetized with ketamine:xylazine (90:10 mg/kg, i.p.). A 3 cm^2 patch of abdominal skin, xiphoid to pubis was exposed by closely shaving the far and the skin was scrubbed with 70% ethanol. A 25 μL volume of 0.5% DNFB in 4:1 v/v acetone:olive oil vehicle is uniformly applied to the bare abdominal skin. The skin was lightly scratched with the applying pipette tip to encourage mild inflammation. […] Twenty four hours after challenge, mice were again anesthetized with ketamine:xylazine and the ear thickness of both ears measured with an engineer's micrometer to an accuracy of 10^−4 inches.
Compounds (100 μL) or appropriate vehicle (Dimethylsulfoxide [DMSO] in isotonic phosphate buffered saline [PBS], 100 μL) were administered orally by gavage 4 hours after challenging the immune response on Day 5. […] The ear swelling response for each mouse was calculated as the difference between its vehicle- and DNFB-challenged ear thickness at 24 hours after challenge. […] Inhibition of the ear swelling response was determined by comparison of treated groups with their vehicle control group. […] Values are expressed as means ± standard error of the mean (SEM).

[2] = molecular target: T1, α4β7 (Homo sapiens, UniProt P13612+P26010); test: JY cell adhesion to CS1/BSA conjugate; format: cell-based; conditions: Mn+2
T1 construct: endogenous in cells; host or cells: JY cells
T1 sequence (P13612 34-1032): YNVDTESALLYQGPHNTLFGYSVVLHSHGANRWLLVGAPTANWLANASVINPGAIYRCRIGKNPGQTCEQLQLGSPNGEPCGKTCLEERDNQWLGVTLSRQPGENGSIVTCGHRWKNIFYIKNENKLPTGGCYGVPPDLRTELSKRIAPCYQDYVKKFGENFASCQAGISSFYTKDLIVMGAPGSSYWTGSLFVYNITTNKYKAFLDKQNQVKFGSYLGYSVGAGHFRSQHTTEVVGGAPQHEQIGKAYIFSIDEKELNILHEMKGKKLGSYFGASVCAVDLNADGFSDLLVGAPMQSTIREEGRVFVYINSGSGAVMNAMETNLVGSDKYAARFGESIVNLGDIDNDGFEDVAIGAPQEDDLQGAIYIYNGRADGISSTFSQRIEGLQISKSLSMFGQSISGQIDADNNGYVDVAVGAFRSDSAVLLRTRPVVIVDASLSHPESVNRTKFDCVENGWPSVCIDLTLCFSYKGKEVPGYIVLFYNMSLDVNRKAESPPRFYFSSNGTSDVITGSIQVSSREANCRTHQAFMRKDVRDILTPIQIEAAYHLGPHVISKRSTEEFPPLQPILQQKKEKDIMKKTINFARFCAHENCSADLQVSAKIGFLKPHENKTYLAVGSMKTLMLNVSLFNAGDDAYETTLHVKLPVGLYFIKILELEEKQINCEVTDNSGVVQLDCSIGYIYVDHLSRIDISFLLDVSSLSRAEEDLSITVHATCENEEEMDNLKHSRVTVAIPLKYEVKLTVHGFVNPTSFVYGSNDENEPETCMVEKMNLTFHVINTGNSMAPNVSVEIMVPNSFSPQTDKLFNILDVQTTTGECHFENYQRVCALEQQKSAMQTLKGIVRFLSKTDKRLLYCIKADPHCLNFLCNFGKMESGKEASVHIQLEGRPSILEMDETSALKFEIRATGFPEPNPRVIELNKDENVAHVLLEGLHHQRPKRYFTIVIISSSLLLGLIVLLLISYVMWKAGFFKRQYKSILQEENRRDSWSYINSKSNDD
T1 sequence (P26010 20-798): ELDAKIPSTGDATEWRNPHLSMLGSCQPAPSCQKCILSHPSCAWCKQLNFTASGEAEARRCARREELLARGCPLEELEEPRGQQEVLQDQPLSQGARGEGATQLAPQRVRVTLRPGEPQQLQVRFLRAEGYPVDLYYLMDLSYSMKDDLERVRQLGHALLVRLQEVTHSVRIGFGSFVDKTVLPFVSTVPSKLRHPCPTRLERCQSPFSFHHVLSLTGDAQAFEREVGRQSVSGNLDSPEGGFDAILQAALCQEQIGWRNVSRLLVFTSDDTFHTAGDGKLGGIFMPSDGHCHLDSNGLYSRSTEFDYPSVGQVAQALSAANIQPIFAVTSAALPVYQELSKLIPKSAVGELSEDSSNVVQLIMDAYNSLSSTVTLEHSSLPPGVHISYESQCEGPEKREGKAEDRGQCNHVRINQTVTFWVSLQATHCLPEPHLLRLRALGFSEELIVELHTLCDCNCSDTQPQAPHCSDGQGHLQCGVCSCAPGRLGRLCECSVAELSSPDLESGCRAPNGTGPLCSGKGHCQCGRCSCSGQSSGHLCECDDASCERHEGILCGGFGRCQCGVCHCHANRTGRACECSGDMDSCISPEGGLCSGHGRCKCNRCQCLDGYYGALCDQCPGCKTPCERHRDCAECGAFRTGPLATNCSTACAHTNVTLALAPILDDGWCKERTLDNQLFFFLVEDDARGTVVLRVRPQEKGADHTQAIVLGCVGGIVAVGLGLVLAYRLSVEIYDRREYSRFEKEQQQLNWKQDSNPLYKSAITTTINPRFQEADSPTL
Experimental: Binding to α4β7 was assessed on JY cells in the presence of Mn^+2. In the binding assay, VCAM-Ig and oMePUPA-V compete for binding to α4β7 on JY cells (See section 4.1.1 for assay protocol). In the cell adhesion assay, oMePUPA-V was tested for its ability to block JY (α4β7) cell binding to CS1/BSA conjugate

## Cc1ccccc1NC(=O)Nc1ccc(CC(=O)N2CCC[C@H]2C(=O)N[C@H](C)CC(=O)O)cc1 [oMePUPA-V]
[1]
  inhibition of ear swelling response (in words): significantly inhibited
[2]; @ 100 μM
  inhibition, JY (α4β7) CS1/BSA adhesion: no inhibition @
[2]; JY cells
  blocking of α4β7 binding to CS1/BSA (in words): does not block
